Measured values taken from patent US20200354327A1, “COMPOUND HAVING STAT3 INHIBITORY ACTIVITY AND USE THEREOF” (CYTUS H&B CO., LTD., priority 2017, published 2020).

Assays:
caspase-3 and PARP = test: Western blot of caspase-3 and PARP; assay type: cell-based, human
Procedure: (§1) Western blot analysis was performed (Jung J E, et al. FASEB J. 19, 1296-1298 (2005)). The cells were washed two times with PBS and suspended in the lysate (50 mM Tris-HCl, pH 7.4, 350 mM NaCl, 1% Triton X-100, 0.5% Nonidet P-40, 10% glycerol, 0.1% SDS, 1 mM EDTA, 1 mM EGTA, 1 mM Na3VO4, 1 mM PMSF, protease and phosphorylation inhibitor) and the cell membrane and nuclear membrane were crushed to lyse the cells. The insoluble protein fraction was removed by centrifugation, and the supernatant was mixed with SDS electrophoresis buffer and electrophoresis (SDS-PAGE) was performed to detect the protein with the desired antibody and to confirm the protein expression level.

U87-MG cells [1] = test: Survival of mice injected with U87-MG cells; assay type: in vivo; conditions: versus DMSO
U87-MG cells [2] = test: Matrigel invasion assay, U87-MG; assay type: cell-based, human; conditions: 24 hours, versus DMSO
Procedure: The growth factor-reduced Matrigel was diluted with a serum-free culture solution at a 1:3 ratio, transferred to a 24-well plate, and solidified at 37° C. for 5 hours. The cells were placed in a culture solution containing 1% serum and added to the solidified Matrigel, 600 μl of a culture solution containing 10% serum to which fibronectin was added at a concentration of […] was added thereto, and the cells were cultured for 24 hours. Thereafter, the cells were fixed and stained by adding Diffquick solution thereto and then observed under a Leica Application Suite microscope, and images were taken.

STAT3 [3] = biological target: T1, STAT3 (Homo sapiens, UniProt P40763); test: Nuclear translocation of STAT3 (fluorescence microscope); assay type: cell-based; parameters: endogenous in cells; host or cells: L540, HDLM-2, U87-MG, MDA-MB-231, further human glioblastoma and breast cancer lines; conditions: compared with the control group
Target sequence in this assay (P40763 whole entry): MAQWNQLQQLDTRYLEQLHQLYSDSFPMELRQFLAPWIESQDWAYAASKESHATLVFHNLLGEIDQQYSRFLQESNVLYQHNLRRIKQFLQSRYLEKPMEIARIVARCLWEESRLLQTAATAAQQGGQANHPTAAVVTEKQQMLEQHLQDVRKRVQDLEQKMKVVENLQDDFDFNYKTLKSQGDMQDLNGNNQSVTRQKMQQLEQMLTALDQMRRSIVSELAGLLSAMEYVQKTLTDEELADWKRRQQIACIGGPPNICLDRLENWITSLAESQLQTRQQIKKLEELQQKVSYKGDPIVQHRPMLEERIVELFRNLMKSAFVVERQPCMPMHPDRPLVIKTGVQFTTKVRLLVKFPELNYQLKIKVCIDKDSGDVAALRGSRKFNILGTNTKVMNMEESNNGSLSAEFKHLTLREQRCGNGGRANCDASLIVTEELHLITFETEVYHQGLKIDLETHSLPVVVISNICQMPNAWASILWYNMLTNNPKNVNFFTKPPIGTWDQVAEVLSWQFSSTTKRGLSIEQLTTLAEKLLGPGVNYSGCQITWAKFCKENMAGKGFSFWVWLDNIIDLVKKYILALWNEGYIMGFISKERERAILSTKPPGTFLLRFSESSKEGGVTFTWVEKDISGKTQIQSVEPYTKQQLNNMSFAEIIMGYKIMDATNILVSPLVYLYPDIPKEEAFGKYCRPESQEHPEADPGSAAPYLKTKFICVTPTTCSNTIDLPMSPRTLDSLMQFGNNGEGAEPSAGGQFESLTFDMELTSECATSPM

U87-MG cells [4] = test: Cell proliferation assay, U87-MG; assay type: cell-based, human; conditions: by time period, versus DMSO
Procedure: (§2) Cell proliferation assay was performed as previously described (Won C, et al. Anticancer Res. 30, 481-488 (2010)). In order to analyze the cell proliferation rate, U87-MG and MDA-MB-231 cell lines were dispensed into a 6-well culture dish, then treated with DMSO and ODZ10117 the next day, and stained with crystal violet after 0 h, 24 h, 48 h, and 72 h, and the number of live cells was calculated using a hemocytometer.

STAT3 [5] = biological target: T1, STAT3; test: STAT3 dimerization (STAT3-Flag / STAT3-HA, immunoprecipitation and western blot in HEK293T); assay type: cell-based; parameters: Flag; HA; expressed in transfected cells; host or cells: HEK293T
Target sequence in this assay (P40763 whole entry, species assumed): as the sequence (P40763 whole entry) above

[6] = system: human malignant glioblastoma; test: Cell viability of human malignant glioblastoma with or without IL-6; assay type: cell-based; conditions: treated with IL-6 for 24 or 48 hours or not; various concentrations
STAT3 [7] = biological target: T1, STAT3; test: Western blot in STAT3-phosphorylated human malignant glioblastoma; assay type: cell-based; parameters: endogenous in cells; host or cells: L540, HDLM-2, U87-MG, MDA-MB-231, further human glioblastoma and breast cancer lines
Procedure: as §1
Target sequence in this assay (P40763 whole entry): as above

Twist = test: Expression of Twist in U87-MG and MDA-MB-231 cells; assay type: cell-based, human; conditions: U87-MG and MDA-MB-231, 24 hours
Procedure: RNA isolation and real-time polymerase chain reaction were performed as described previously (Jung J E, et al. FASEB J. 19, 1296-1298 (2005)). Primer specific for human-derived Bcl-XL, Bcl-2, Twist, and GADPH genes were mixed with QuantiFast SYBR Green PCR master mix, and each gene was amplified using the Applied Biosystems 7300 real-time PCR system to compare the expression level.

MDA-MB-231 cells = test: Cell proliferation assay, MDA-MB-231; assay type: cell-based, human; conditions: MDA-MB-231, by time period, versus DMSO
Procedure: as §2

STAT92E = test: Drosophila cell luciferase assay (10XSTAT92E-luciferase reporter); assay type: cell-based; conditions: compared with DMSO-treated group, concentration-dependent
Procedure: Drosophila cells (S2-NP, 24×3) used in the experiment were cultured as previously described (Kim B H, et al. Mol Cancer Ther. 7, 2672-2680 (2008)). S2-NP (Drosophila Schneider cell) cells were Drosophila-derived macrophage-like cells and were cultured in Schneider's medium. 24×3 cells were cell lines stably expressed by inserting 10XSTAT92E-luciferase and PolIII-Renilla luciferase-labeled plasmid DNA as reporter constructs into S2-NP cells and were cultured in a medium prepared by adding […] of geneticin to the same medium as that for S2-NP. S2-NP cells in which unpaired (upd) or HOPT^Tum-l as a ligand was expressed and 24×3 cells constructed with reporter constructs were mixed at a constant ratio and cultured for 24 hours in the presence of a compound, the expression level of STAT92E was measured using a luminometer, and the inhibition effect was compared with that of the DMSO-treated group.

U87-MG cells [8] = test: Human tumor cell xenograft, U87-MG; assay type: in vivo, BALB/c nude mice; conditions: injected directly into the tumor, versus DMSO
Procedure: Male Nude Mouse (BALB/cAnNCrj-nu/nu) was purchased from Charles River Japan Inc. (Shin-Yokohama, Japan). The mouse was bred in a clean room in which the temperature and humidity were constantly controlled. The breeding process was carried out according to the method described in the manual for maintenance of laboratory animals in Seoul National University. U87-MG cells or MDA-MB-231 cells were diluted with PBS, suspended in 100 μl of Matrigel at 25% concentration, and injected into the back of mouse and bred for 6 to 10 weeks. Human tumor growth was measured every other day using a vernier caliper from 2 weeks after cell injection. With regard to the degree of inhibition of human tumor cell formation, 40 μM of ODZ10117 was directly injected into the human tumor on days 0, 3, and 5 from week 4 of tumor cell injection. On the 7th day, the mouse was sacrificed to separate the tumor, and the tumor cell inhibitory efficacy of the drug was measured by being compared with that of the control group treated with 1% DMSO.

For `Clc1ccc(OCc2noc(C(Cl)(Cl)Cl)n2)c(Cl)c1` [ODZ10117, 3-(2,4-dichloro-phenoxymethyl)-5-trichloromethyl-[1,2,4]oxadiazole], the “amount of fragmented caspase-3 and PARP proteins” value (caspase-3 and PARP) was “significantly increased the amount of fragmented caspase-3 and PARP proteins”, the survival time (U87-MG cells [1]) was “survival time increased” and the cell invasion (U87-MG cells [2]) was “significantly decreased cell invasion in both the two cell lines”. For the same compound, the “nuclear translocation of STAT3” value (STAT3 [3]) was “further inhibited nuclear translocation of STAT3”, the cell proliferation (U87-MG cells [4]) was “effectively inhibited the proliferation of the two cell lines” and the STAT3 dimerization (STAT3 [5]) was “inhibited STAT3 dimerization”. For the same compound, the “STAT3 dimerization inhibitory efficacy compared with napabucasin” value (STAT3 [5]) was “superior STAT3 dimerization inhibitory efficacy to napabucasin”, the cell survival [6] was “cell survival was inhibited” and the “phosphorylation of tyrosine 705 of STAT3” value (STAT3 [7]) was “inhibited the phosphorylation of tyrosine 705 of STAT3 in STAT3-phosphorylated human malignant glioblastoma in a concentration-dependent manner”. The “time to complete inhibition of phosphorylation of STAT3 after treatment” value (STAT3 [7]) was ≤ 2 h, the “STAT3 inhibitory efficacy compared with known inhibitors” value (STAT3 [7]; versus NSC628869 and NSC74859) was “superior STAT3 inhibitory efficacy to NSC628869 and NSC74859” and the “expression of Twist” value (Twist) was “significantly decreased”. For the same compound, the cell proliferation (MDA-MB-231 cells) was “effectively inhibited the proliferation of the two cell lines”, the “promoter activity of STAT92E” value (STAT92E) was “significantly decreased the promoter activity of STAT92E” and the tumor growth (U87-MG cells [8]) was “significantly inhibited tumor growth”.
